From patent US12428623B2, “Generation of midbrain-specific organoids from human pluripotent stem cells” (AGENCY FOR SCIENCE, TECHNOLOGY AND RESEARCH, priority 2016, dated 2025)

What was measured:
Type in all cases: cell-based
[1] = system: neuron inside a human midbrain-like organoid; assay: Whole cell patch clamp recording of spontaneous postsynaptic currents in hMLO neurons; details: for spontaneous excitatory postsynaptic currents (sEPSCs): neuron inside hMLO at day 80, CNQX and AP5 applied together (FIG. 4F, recording 2)
Protocol: Whole cell patch clamp recording techniques were used to measure the intrinsic properties of neurons within human midbrain-like organoids. Each human midbrain-like organoid was placed in a chamber and submerged beneath continuously perfused artificial CSF (aCSF) saturated with 95% O2 and 5% CO2 at 30 to 32° C. Patch pipettes (2 to 4 MΩ) were filled with an intracellular solution containing (in mM): Potassium methanesulfonate 135, KCl 10, HEPES 10, EGTA 1 Na2ATP 2; 290 mOsm; pH was adjusted to between 7.2 to 7.4 with KOH. Whole cell recordings were performed using IR-DIC visualization techniques with an Olympus BX51WI upright microscope, using a ×60 water immersion lens. Signals were recorded using an MultiClamp 700B amplifier, filtered at 3 kHz using a Bessel filter, and digitized at 10 kHz with a Digidata 1322A analog-to-digital (A/D) board (Molecular Devices, Sunnyvale, CA). To measure Na^+ currents and K^+ currents, voltage steps (500 msec duration) were applied from a holding potential of −70 mV to a range of test potentials between −50 and +90 mV (10 mV increments). For excitability test, a series of current pulses (500 msec) of increasing amplitude (5 pA steps) were injected to make the current-firing frequency relationship. Spontaneous excitatory postsynaptic currents (sEPSCs) were collected at a holding potential of −70 mV. Evoked excitatory postsynaptic currents (eEPSCs) was induced by tungsten wire electrodes placed about 300 μm away from the recording neuron within the hMLO.

[2] = system: human cerebral organoids (hCOs); assay: Neuromelanin-like granule formation in human cerebral organoids; details: 50 μM for 10 days; human cerebral organoids (FIG. 7G)
Protocol: Human midbrain-like organoids were fixed in 4% paraformaldehyde (PFA) overnight, washed in PBS, embedded in paraffin block, and subsequently sectioned at 4 μm thickness. Next, hMLOsections were deparaffinized, hydrated with distilled water, and stained by Fontana-Masson staining kit (Abcam) according to manufacturer's protocol ([…] et al., 2011). Briefly, the sections were placed in ammoniacal silver solution and incubated in a 58 to 60° C. water bath for 30 to 60 minutes until the tissue sections had become yellowish/brown in colour. The tissue sections were washed with distilled water and incubated in gold chloride solution (0.2%) for 30 seconds. Next, the sections were incubated in gold chloride solution (0.2%) for 30 seconds and subsequently incubated with sodium thiosulfate solution (5%) for 2 minutes. Finally, the sections were incubated in nuclear fast red solution for 5 minutes for staining and mounting. Images were taken on an LSM710 confocal microscope or an Observer Z. 1 inverted microscope (Zeiss).

[3] = system: human midbrain-like organoids (hMLOs); assay: Neuromelanin-like granule formation in human midbrain-like organoids (bright field, Fontana-Masson staining); details: for formation of neuromelanin-like granules: 50 μM treatment, bright field images and Fontana-Masson stained sections (FIG. 3G)
Protocol: For generation of human midbrain-like organoids, human embryonic stem cell lines were used at less than 40 passages. The human embryonic stem cells were dissociated from intact colonies to single cells with TrypLE Express (Life Technologies), and 10,000 cells were plated in each well of low-cell-adhesion 96-well culture plate with V-bottomed conical wells (Sumitomo Bakelite) to form uniform EBs in neuronal induction medium containing DMEM/F12:Neurobasal (1:1), 1:100 N2 supplement (Invitrogen), 1:50 B27 without vitamin A (Invitrogen), 1% GlutaMAX (Invitrogen), 1% minimum essential media-nonessential amino acid (Invitrogen), and 0.1% β-mercaptoethanol (Invitrogen) supplemented with 1 μg/ml Heparin (Sigma-Aldrich), 10 μM SB431542 (Stemgent), 200 ng/ml Noggin (Prospec), 0.8 μM CHIR99021 (Reagents Direct), and 10 μM ROCK inhibitor Y27632 (Calbiochem). ROCK inhibitor was added for the first 48 hours and neuronal induction medium was changed on day 2. On day 4, human midbrain-like organoids were cultured with addition of 100 ng/ml SHH-C25II (R&D Systems) and 100 ng/ml FGF8 (R&D Systems) for midbrain patterning. After 3 days, the human midbrain-like organoids started to extrude neuroectodermal buds, media were completely removed and immediately 30 μl of growth factor reduced matrigel was added in each well by pipetting using pre-chilled 200 μl pipette tip. The matrigel embedded midbrain-like organoid was placed into 37° C. incubator for 30 minutes to allow the matrigel to solidify, and was grown in tissue growth induction medium containing Neurobasal, 1:100 N2 supplement (Invitrogen), 1:50 B27 without vitamin A (Invitrogen), 1% GlutaMAX (Invitrogen), 1% minimum essential media-nonessential amino acid (Invitrogen), and 0.1% β-mercaptoethanol (Invitrogen) supplemented with 2.5 μg/ml Insulin (Sigma-Aldrich), 200 ng/ml Laminin (Sigma-Aldrich), 100 ng/ml SHH-C25II (R&D Systems), and 100 ng/ml FGF8 (R&D Systems) for 24 h. […]

NC(CCCP(=O)(O)O)C(=O)O (stereo not shown) [AP5]
spontaneous excitatory postsynaptic currents (sEPSCs) [1]: blocked

N#Cc1cc2[nH]c(=O)c(=O)[nH]c2cc1[N+](=O)[O-] [CNQX]
spontaneous excitatory postsynaptic currents (sEPSCs) [1]: blocked

N[C@@H](Cc1ccc(O)c(O)c1)C(=O)O [L-DOPA, L-3,4-dihydroxyphenylalanine]
neuromelanin (NM)-like granules or coloured deposits [2]: did not show any neuromelanin (NM)-like granules
formation of neuromelanin-like granules [3]: accelerated
distribution of neuromelanin-like granules ([3]; L-DOPA 50 μM, hMLO at day 35, untreated hMLO at the same day showed none): robust distribution of neuromelanin-like granules was observed

NCCc1ccc(O)c(O)c1 [dopamine, 3,4-dihydroxyphenethylamine]
formation of neuromelanin-like granules [3]: accelerated

picrotoxin
spontaneous inhibitory postsynaptic currents (sIPSCs) ([1]; neuron inside hMLO at day 80 (FIG. 4F, recording 3)): blocked
